# Reference: patent US9399649B2, “Compounds for treating spinal muscular atrophy” (PTC Therapeutics Inc., priority 2012, dated 2016)
# Tests used:
# [1] = test system: full length SMN2 minigene mRNA containing SMN2 exon 7; experiment: SMN2 minigene mRNA splicing RT-qPCR assay in cultured cells; format: cell-based, human; conditions: Homo sapiens, HEK293-H; HEK293H cells stably transfected with SMN2-A minigene, 24 hours, 7-point concentration curve; concentration giving 1.5-fold full length SMN2 mRNA vs vehicle; read-out: EC1.5x for production of full length SMN2 mRNA
# How it was run: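 HEK293H cells stably carrying SMN2-A minigene treated 24 h (37 °C) with compound, 7-point 3.16-fold dilution, duplicates. Multiplex RT-qPCR on lysate with exon 7/luciferase primers and exon 7–8 junction probe (minigene-specific). Full-length transcript normalised to GAPDH by modified ΔΔCt, expressed relative to vehicle-treated cells.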
# Smn protein = Smn protein assay in cultured cells (SMN HTRF); format: cell-based, human; conditions: SMA patient fibroblast cells (GM03813), 48 hours; for EC1.5x for Smn protein expression: 7-point concentration curve, concentration producing 1.5 times Smn protein vs DMSO vehicle; for maximum fold (Fold) increase of Smn protein: 7-point concentration data, relative to vehicle control
# How it was run: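 SMA patient fibroblasts, 5,000 per well in DMEM-10% FBS, exposed 48 h at 37° C. to a 7-point, 3.16-fold compound series in triplicate. RIPA lysates read by SMN HTRF (665/620 nm, overnight at room temperature); ΔF over blank expressed as fold of vehicle.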
structure (smiles),measurement,setting,value
"Cc1nc(Cl)cn2cc(-c3cc4ccc(N5CCN(C(C)C)CC5)cc4c(=O)o3)nc12 [Cpd 101, 3-(6-chloro-8-methylimidazo[1,2-a]pyrazin-2-yl)-7-[4-(propan-2-yl)piperazin-1-yl]-1H-isochromen-1-one]",EC (1.5-fold),[1],0.1 to 0.3 µM
same,EC1.5x for Smn protein expression,Smn protein,*** (an EC1.5× between >0.3 nM and ≦1 nM is indicated by three stars (***))
same,maximum fold (Fold) increase of Smn protein,Smn protein,***** (a fold increase >1.65 is indicated by five stars (*****))
same,melting point,,286 to 291 °C
"CCN1CCN(c2ccc3cc(-c4cn5cc(Cl)nc(C)c5n4)oc(=O)c3c2)CC1 [Cpd 102, 3-(6-chloro-8-methylimidazo[1,2-a]pyrazin-2-yl)-7-(4-ethylpiperazin-1-yl)-1H-isochromen-1-one]",EC (1.5-fold),[1],0.1 to 0.3 µM
same,maximum fold (Fold) increase of Smn protein,Smn protein,*** (a fold increase between >1.35 and ≦1.5 is indicated by three stars (***))
same,melting point,,229 to 234 °C
"Cc1nc2ccc(-c3cc4ccc(N5CCNCC5)cc4c(=O)o3)cc2s1 [Cpd 103, 3-(2-methyl-1,3-benzothiazol-6-yl)-7-(piperazin-1-yl)-1H-isochromen-1-one]",EC (1.5-fold),[1],≤ 0.1 µM
same,EC1.5x for Smn protein expression,Smn protein,**** (an EC1.5×≦0.3 nM is indicated by four stars (****))
same,maximum fold (Fold) increase of Smn protein,Smn protein,**** (a fold increase between >1.5 and ≦1.65 is indicated by four stars (****))
same,melting point,,271 to 276 °C
"Cc1nc2ccc(-c3cc4ccc(N5CCN(C)CC5)cc4c(=O)o3)cc2s1 [Cpd 104, 3-(2-methyl-1,3-benzothiazol-6-yl)-7-(4-methylpiperazin-1-yl)-1H-isochromen-1-one]",EC (1.5-fold),[1],0.1 to 0.3 µM
same,maximum fold (Fold) increase of Smn protein,Smn protein,*** (a fold increase between >1.35 and ≦1.5 is indicated by three stars (***))
same,melting point,,231 to 236 °C
"Cc1nc2ccc(-c3cc4ccc(N5CCN(C(C)C)CC5)cc4c(=O)o3)cc2s1 [Cpd 105, 3-(2-methyl-1,3-benzothiazol-6-yl)-7-[4-(propan-2-yl)piperazin-1-yl]-1H-isochromen-1-one]",EC (1.5-fold),[1],0.1 to 0.3 µM
same,maximum fold (Fold) increase of Smn protein,Smn protein,** (a fold increase between >1.2 and ≦1.35 is indicated by two stars (**))
same,melting point,,222 to 228 °C
"Cc1nc2cc(-c3cc4ccc(N5CCNCC5)cc4c(=O)o3)ccc2s1 [Cpd 106, 3-(2-methyl-1,3-benzothiazol-5-yl)-7-(piperazin-1-yl)-1H-isochromen-1-one]",EC (1.5-fold),[1],1 to 3 µM
same,maximum fold (Fold) increase of Smn protein,Smn protein,* (A maximum fold increase of ≦1.2 is indicated by one star (*))
same,melting point,,229 to 235 °C
"Cc1nc2ccc(-c3cc4ccc(N5CCN(C6COC6)CC5)cc4c(=O)o3)cc2s1 [Cpd 107, 3-(2-methyl-1,3-benzothiazol-6-yl)-7-[4-(oxetan-3-yl)piperazin-1-yl]-1H-isochromen-1-one]",EC (1.5-fold),[1],0.3 to 1 µM
same,maximum fold (Fold) increase of Smn protein,Smn protein,*** (a fold increase between >1.35 and ≦1.5 is indicated by three stars (***))
same,melting point,,222 to 228 °C
"Cc1nc(Cl)cn2cc(-c3cc4ccc(N5CCN[C@@H](C)C5)cc4c(=O)o3)nc12 [Cpd 108, 3-(6-chloro-8-methylimidazo[1,2-a]pyrazin-2-yl)-7-[(3S)-3-methylpiperazin-1-yl]-1H-isochromen-1-one]",EC (1.5-fold),[1],≤ 0.1 µM
same,EC1.5x for Smn protein expression,Smn protein,**** (an EC1.5×≦0.3 nM is indicated by four stars (****))
same,maximum fold (Fold) increase of Smn protein,Smn protein,***** (a fold increase >1.65 is indicated by five stars (*****))
same,melting point,,251 to 258 °C
"Cc1nc(Cl)cn2cc(-c3cc4ccc(N5CCN[C@H](C)C5)cc4c(=O)o3)nc12 [Cpd 109, 3-(6-chloro-8-methylimidazo[1,2-a]pyrazin-2-yl)-7-[(3R)-3-methylpiperazin-1-yl]-1H-isochromen-1-one]",EC (1.5-fold),[1],≤ 0.1 µM
same,EC1.5x for Smn protein expression,Smn protein,*** (an EC1.5× between >0.3 nM and ≦1 nM is indicated by three stars (***))
same,maximum fold (Fold) increase of Smn protein,Smn protein,***** (a fold increase >1.65 is indicated by five stars (*****))
same,melting point,,251 to 258 °C
"Cc1nc(Cl)cn2cc(-c3cc4ccc(N5C[C@@H](C)N[C@@H](C)C5)cc4c(=O)o3)nc12 [Cpd 110, 3-(6-chloro-8-methylimidazo[1,2-a]pyrazin-2-yl)-7-[(3R,5S)-3,5-dimethylpiperazin-1-yl]-1H-isochromen-1-one]",EC (1.5-fold),[1],0.3 to 1 µM
same,EC1.5x for Smn protein expression,Smn protein,*** (an EC1.5× between >0.3 nM and ≦1 nM is indicated by three stars (***))
same,maximum fold (Fold) increase of Smn protein,Smn protein,**** (a fold increase between >1.5 and ≦1.65 is indicated by four stars (****))
same,melting point,,261 to 266 °C
"Cc1nc(Cl)cn2cc(-c3cc4ccc(N5CCN(C)[C@H](C)C5)cc4c(=O)o3)nc12 [Cpd 111, 3-(6-chloro-8-methylimidazo[1,2-a]pyrazin-2-yl)-7-[(3R)-3,4-dimethylpiperazin-1-yl]-1H-isochromen-1-one]",EC (1.5-fold),[1],0.1 to 0.3 µM
same,EC1.5x for Smn protein expression,Smn protein,*** (an EC1.5× between >0.3 nM and ≦1 nM is indicated by three stars (***))
same,maximum fold (Fold) increase of Smn protein,Smn protein,***** (a fold increase >1.65 is indicated by five stars (*****))
same,melting point,,271 to 276 °C
"Cc1nc(Cl)cn2cc(-c3cc4ccc(N5CCN(C)[C@@H](C)C5)cc4c(=O)o3)nc12 [Cpd 112, 3-(6-chloro-8-methylimidazo[1,2-a]pyrazin-2-yl)-7-[(3S)-3,4-dimethylpiperazin-1-yl]-1H-isochromen-1-one]",EC (1.5-fold),[1],1 to 3 µM
same,EC1.5x for Smn protein expression,Smn protein,"** (an EC1.5× between >1 μM, and ≦3 nM is indicated by two stars (**))"
same,maximum fold (Fold) increase of Smn protein,Smn protein,***** (a fold increase >1.65 is indicated by five stars (*****))
same,melting point,,270 to 275 °C
"Cc1nc(Cl)cn2cc(-c3cc4ccc(C5=CCNCC5)cc4c(=O)o3)nc12 [Cpd 113, 3-(6-chloro-8-methylimidazo[1,2-a]pyrazin-2-yl)-7-(1,2,3,6-tetrahydropyridin-4-yl)-1H-isochromen-1-one]",EC (1.5-fold),[1],≤ 0.1 µM
same,EC1.5x for Smn protein expression,Smn protein,"** (an EC1.5× between >1 μM, and ≦3 nM is indicated by two stars (**))"
same,maximum fold (Fold) increase of Smn protein,Smn protein,**** (a fold increase between >1.5 and ≦1.65 is indicated by four stars (****))
same,melting point,,269 to 273 °C
"Cc1cn2cc(-c3cc4ccc(C5CCN(C)CC5)cc4c(=O)o3)nc2c(C)n1 [Cpd 114, 3-(6,8-dimethylimidazo[1,2-a]pyrazin-2-yl)-7-(1-methylpiperidin-4-yl)-1H-isochromen-1-one]",EC (1.5-fold),[1],≤ 0.1 µM
same,EC1.5x for Smn protein expression,Smn protein,**** (an EC1.5×≦0.3 nM is indicated by four stars (****))
same,maximum fold (Fold) increase of Smn protein,Smn protein,***** (a fold increase >1.65 is indicated by five stars (*****))
same,melting point,,248 to 250 °C
"CCN1CCC(c2ccc3cc(-c4cn5cc(C)nc(C)c5n4)oc(=O)c3c2)CC1 [Cpd 115, 3-(6,8-dimethylimidazo[1,2-a]pyrazin-2-yl)-7-(1-ethylpiperidin-4-yl)-1H-isochromen-1-one]",EC (1.5-fold),[1],≤ 0.1 µM
same,EC1.5x for Smn protein expression,Smn protein,**** (an EC1.5×≦0.3 nM is indicated by four stars (****))
same,maximum fold (Fold) increase of Smn protein,Smn protein,***** (a fold increase >1.65 is indicated by five stars (*****))
same,melting point,,215 to 217 °C
"CCCN1CCC(c2ccc3cc(-c4cn5cc(C)nc(C)c5n4)oc(=O)c3c2)CC1 [Cpd 116, 3-(6,8-dimethylimidazo[1,2-a]pyrazin-2-yl)-7-(1-propylpiperidin-4-yl)-1H-isochromen-1-one]",EC (1.5-fold),[1],≤ 0.1 µM
same,EC1.5x for Smn protein expression,Smn protein,*** (an EC1.5× between >0.3 nM and ≦1 nM is indicated by three stars (***))
same,maximum fold (Fold) increase of Smn protein,Smn protein,**** (a fold increase between >1.5 and ≦1.65 is indicated by four stars (****))
same,melting point,,204 to 206 °C
"Cc1cn2cc(-c3cc4ccc(C5CCN(C(C)C)CC5)cc4c(=O)o3)nc2c(C)n1 [Cpd 117, 3-(6,8-dimethylimidazo[1,2-a]pyrazin-2-yl)-7-[1-(propan-2-yl)piperidin-4-yl]-1H-isochromen-1-one]",EC (1.5-fold),[1],≤ 0.1 µM
same,EC1.5x for Smn protein expression,Smn protein,*** (an EC1.5× between >0.3 nM and ≦1 nM is indicated by three stars (***))
same,maximum fold (Fold) increase of Smn protein,Smn protein,***** (a fold increase >1.65 is indicated by five stars (*****))
same,melting point,,227 to 229 °C
"Cc1cn2cc(-c3cc4ccc(C5CCN(C6COC6)CC5)cc4c(=O)o3)nc2c(C)n1 [Cpd 119, 3-(6,8-dimethylimidazo[1,2-a]pyrazin-2-yl)-7-[1-(oxetan-3-yl)piperidin-4-yl]-1H-isochromen-1-one]",EC (1.5-fold),[1],0.1 to 0.3 µM
same,EC1.5x for Smn protein expression,Smn protein,*** (an EC1.5× between >0.3 nM and ≦1 nM is indicated by three stars (***))
same,maximum fold (Fold) increase of Smn protein,Smn protein,***** (a fold increase >1.65 is indicated by five stars (*****))
same,melting point,,225 to 227 °C
"CCN1CCN(c2ccc3cc(-c4cn5cc(C)ncc5n4)oc(=O)c3c2)C[C@@H]1C [Cpd 120, 7-[(3S)-4-ethyl-3-methylpiperazin-1-yl]-3-(6-methylimidazo[1,2-a]pyrazin-2-yl)-1H-isochromen-1-one]",EC (1.5-fold),[1],≤ 0.1 µM
same,EC1.5x for Smn protein expression,Smn protein,**** (an EC1.5×≦0.3 nM is indicated by four stars (****))
same,maximum fold (Fold) increase of Smn protein,Smn protein,***** (a fold increase >1.65 is indicated by five stars (*****))
same,melting point,,255 to 260 °C
